Test results reported in patent US20090221441A1, “THREE-DIMENSIONAL CELLULAR ARRAY CHIP AND PLATFORM FOR TOXICOLOGY ASSAYS” (Rensselaer Polytechnic Institute, priority 2005, published 2009).
Read-outs that look alike come from different tables or passages of the source.

How the values were obtained:
[1] = system: human Hep3B cells; experiment: in vitro
Description: (§1) The cytotoxicity of drugs (or drug metabolites) was determined by staining the slide containing the cells with a Live/Dead test kit (Molecular Probes) that produces a green fluorescent response from living cells. At the end of the 3-day culture period post stamping, the three-dimensional cell chip (DataChip) was rinsed three times in PBS for 5 min each. One mL of a dye solution containing 0.5 μM calcein AM was applied to each three-dimensional cell chip using a glass slide with 1 mm thick perimeter gasket acting as a barrier to prevent loss of the dye solution.
(§2) Following incubation for 50 minutes at room temperature, excess dye in the collagen-gel drops was removed by incubating the slides in a petri dish containing 16 mL of PBS for 30 min on a gyratory shaker at 60 rpm. The three-dimensional cell chip was dried thoroughly with nitrogen. The three-dimensional cell chip was scanned with the GenePix® Professional 4200A scanner equipped with blue laser and standard blue filter to determine the green fluorescent intensity and was quantified from the scanning image using GenePix Pro 6.0 (Molecular Devices Co.).
(§3) Percent live cells=(FReaction/FMax)×100
(§4) where FReaction is the green fluorescence intensity of the reaction spot and FMax is the green fluorescence intensity of untreated fully viable cells.
(§5) For efficient stamping, MTMOS-coated glass slides were prepared to contain a sol-gel barrier on the periphery of the slides.
(§6) To this end […] of methyltrimethoxysilane (MTMOS) sol was prepared by mixing 2 mL of MTMOS with 1 mL of HCl (10 mM) and sonicated for 10 min. The sol was spotted on the periphery of the MTMOS-coated slide and then the slide was baked in an oven for 30 min at 120° C.
(§7) The MetaChip was stored at −80° C. for 1 day prior to use. Cytotoxicity studies were performed by spotting 20 nL of test compound in distilled water (0-2 mM) onto the MetaChip spots and partially dried.
(§8) This was followed by stamping of the three-dimensional cell chip (DataChip) containing either MCF7 or Hep3B cells onto the MetaChip.
(§9) To this end, a MetaChip consisting of 20×54 alginate spots was prepared; each spot containing a single human P450 isoform (CYP1A2, CYP2D6, or CYP3A4), a mixture of the three isoforms, or no P450 as a test compound only control. Addition of test compounds was carried out by overlay spotting of solutions of these compounds onto the MetaChip, which was then stamped on top of the DataChip.
(§10) Using three DataChips in combination with three MetaChips, IC50 values for 27 compounds and their P450-generated metabolites against human Hep3B cells were determined. […] The three P450 isoforms were used along with an equimolar mixture of the three isoforms and a test compound only control without P450. The test compounds were added to the MetaChip, which was then stamped onto the DataChip and incubated for 6 h. This was followed by removing the DataChip, rinsing with growth medium, incubating in media for 3 days, and then stained for cell viability.

[2] = Cytotoxicity of compounds and their P450-generated metabolites, Hep3B DataChip stamped with MetaChip; details: human
Description: as §1, §2, §3, §4, §5, §6, §7, §8, §9, §10

[3] = system: MCF7 cells; experiment: cells; details: Homo sapiens, MCF7, read-out: Calculated IC50, Alginate DataChip (MCF7)
Description: as §1, §2, §3, §4
(§11) The alginate-containing three-dimensional cell chip (DataChip) was prepared as follows. A poly-L-lysine (PLL)-barium mixture was prepared by mixing equal volume of sterile PLL (0.01 w/v % from Sigma) and barium chloride solution in distilled water (0.1 M from Sigma).
(§12) A suspension of cells in low-viscosity alginate (from Sigma) was prepared by mixing a Hep3B cell suspension in 5% FBS-supplemented DMEM with alginate solution in distilled water so that the final concentration of cells and alginate are 6×10^6 cells/mL and 1% (w/v), respectively.
(§13) Following spotting and drying of 10 nL PLL-barium mixture on the PS-MA-treated slide, 20-nL of the cell suspension (MCF7 or HepB3; cell density of 6×10^6 cells/mL or 120 cells per spot) in alginate was spotted atop each PLL-barium spot.

[4] = system: Hep3B human hepatoma cells; experiment: cells; details: read-out: Calculated IC50, Alginate DataChip (Hep3B)
Description: as §1, §2, §3, §4, §11, §12, §13

[5] = system: MCF7 cells; experiment: cells; details: Homo sapiens
[6] = system: MCF7 cells; details: read-out: IC50, 2D literature values; 2D cultures in 96-well plates, Refs 1-5; cited from earlier work
[7] = system: MCF7 human breast cancer cells; experiment: cells
Description: as §1

[8] = system: MCF7 cells; experiment: cells; details: Homo sapiens; remark: listed apart in the source
[9] = P450 activity determination with blue fluorogenic substrates in 384-well plate; type: biochemical, human
Description: To assess the intrinsic reactivity of P450s in alginate matrices, reactions were performed in wells of a 384-well plate. P450-containing alginate sol was prepared by dispensing 24 μL of P450 baculosomes (1 nmol P450/mL), 36 μL of distilled water, and 60 μL of alginate (2%) in distilled water. Five microliters of this solution were spotted onto 5 μL of the dried PLL-barium spot in a 384-well. Followed by storage of the P450-alginate gel drops at −80° C. for 1 day, 25 μL of blue fluorogenic substrates (BOMCC for CYP3A4 and EOMCC for CYP1A2 and CYP2D6) containing 250 μM NADP^+ and its regeneration system (8 mM glucose-6-phosphate and 1 U/mL glucose-6-phosphate dehydrogenase) in 50 mM potassium phosphate buffer (pH 8) were dispensed onto the thawed P450-alginate gel drop.
As a control, soluble P450 without alginate was also used. The blue fluorescent 7-hydroxycoumarin released by P450-catalyzed oxidation of BOMCC or EOMCC was monitored as a function of time using a BioAssay Reader HTS 7000 Plus (Perkin Elmer, Norwalk, Conn.) at an excitation wavelength of 430 nm and emission wavelength of 497 nm.

[10] = IC50, CYP1A2, Hep3B DataChip, MetaChip spots with CYP1A2
[11] = IC50, CYP2D6, Hep3B DataChip, MetaChip spots with CYP2D6
[12] = IC50, CYP3A4, Hep3B DataChip, MetaChip spots with CYP3A4
[13] = IC50, Mixture, Hep3B DataChip, equimolar mixture of CYP1A2, CYP2D6, CYP3A4
[14] = IC50, No P450, Hep3B DataChip, test compound only control without P450
[15] = MCF7, read-out: Calculated IC50, 2D 96-well plate
[16] = MCF7, read-out: IC50 from 2D control in the 96-well plate
[17] = MCF7, read-out: Calculated IC50, Collagen DataChip (MCF7)
[18] = MCF7, read-out: IC50 evaluated on the DataChip
[19] = MCF7, read-out: Calculated IC50, 3D 96-well plate
[20] = MCF7, read-out: IC50 from 3D control
[21] = Soluble enzyme (control, in solution)

Row | IC50 [3] [µM] | IC50 [4] [µM] | IC50 [5, 15] [µM] | IC50 [5, 16] [µM] | IC50 [7, 17] [µM] | IC50 [7, 18] [µM] | IC50 [8, 19] [µM] | IC50 [8, 20] [µM] | Molecule | IC50 at 6 h [2, 10] [µM] | IC50 at 6 h [2, 11] [µM] | IC50 at 6 h [2, 12] [µM] | IC50 at 6 h [2, 13] [µM] | IC50 at 6 h [2, 14] [µM] | IC50 [6] [µM] | Km ([9]; In Alginate) [µM] | kcat ([9]; In Alginate) [s⁻¹] | Km [9, 21] [µM] | kcat [9, 21] [s⁻¹] | further results
1 | 84.6 ± 18.7 | 66.1 ± 8.8 | 68.9 ± 13.5 | 41.7 ± 4.6 | 82.4 ± 10.3 | 51.5 ± 3.3 | 49 ± 3 | 34.7 ± 1.2 | O=c1[nH]cc(F)c(=O)[nH]1 [5-Fluorouracil, 5-fluorouracil] | 218 ± 44.3 | 132 ± 20.7 | 349 ± 72.3 | 436 ± 77 | 196 ± 27.2 | 4.1 to 30 | – | – | – | – | Activation or deactivation of the toxic response by CYP3A4 [1]: deactivated
2 | 0.19 ± 0.08 | 0.29 ± 0.09 | 0.06 ± 0.01 | 0.0647 ± 0.0044 | 0.43 ± 0.09 | 0.869 ± 0.057 | 0.23 ± 0.02 | 69.2 ± 3 | COc1cccc2c1C(=O)c1c(O)c3c(c(O)c1C2=O)C[C@@](O)(C(=O)CO)C[C@@H]3O[C@H]1C[C@H](N)[C@H](O)[C@H](C)O1 [Doxorubicin, doxorubicin] | 1.01 ± 0.22 | 4.94 ± 1.36 | 19.3 ± 5.45 | 9.71 ± 2.22 | 0.69 ± 0.01 | 0.01 to 55 | – | – | – | – | Activation or deactivation of the toxic response by CYP2D6 [1]: activated; IC50 at 6 h ([2]; IC50 values, Hep3B DataChip): < 1 µM

More lines, now with the values behind:

Row | Molecule | IC50 [3] [µM] | IC50 [4] [µM] | IC50 [5, 15] [µM] | IC50 [5, 16] [µM] | IC50 [7, 17] [µM] | IC50 [7, 18] [µM] | IC50 [8, 19] [µM] | IC50 [8, 20] [µM] | IC50 at 6 h [2, 10] [µM] | IC50 at 6 h [2, 11] [µM] | IC50 at 6 h [2, 12] [µM] | IC50 at 6 h [2, 13] [µM] | IC50 at 6 h [2, 14] [µM] | IC50 [6] [µM] | Km ([9]; In Alginate) [µM] | kcat ([9]; In Alginate) [s⁻¹] | Km [9, 21] [µM] | kcat [9, 21] [s⁻¹] | further results
3 | CYP1A2: human P450 isoform (baculosomes), soluble or encapsulated in alginate; assayed with EOMCC (protein, UniProt P05177 2-516, looked up) Cytochrome P450 1A2: ALSQSVPFSATELLLASAIFCLVFWVLKGLRPRVPKGLKSPPEPWGWPLLGHVLTLGKNPHLALSRMSQRYGDVLQIRIGSTPVLVLSRLDTIRQALVRQGDDFKGRPDLYTSTLITDGQSLTFSTDSGPVWAARRRLAQNALNTFSIASDPASSSSCYLEEHVSKEAKALISRLQELMAGPGHFDPYNQVVVSVANVIGAMCFGQHFPESSDEMLSLVKNTHEFVETASSGNPLDFFPILRYLPNPALQRFKAFNQRFLWFLQKTVQEHYQDFDKNSVRDITGALFKHSKKGPRASGNLIPQEKIVNLVNDIFGAGFDTVTTAISWSLMYLVTKPEIQRKIQKELDTVIGRERRPRLSDRPQLPYLEAFILETFRHSSFLPFTIPHSTTRDTTLNGFYIPKKCCVFVNQWQVNHDPELWEDPSEFRPERFLTADGTAINKPLSEKMMLFGMGKRRCIGEVLAKWEIFLFLAILLQQLEFSVPPGVKVDLTPIYGLTMKHARCEHVQARLRFSIN | – | – | – | – | – | – | – | – | – | – | – | – | – | – | 3.61 ± 0.43 | 0.0085 ± 0.00517 | 5.78 ± 0.8 | 0.0225 ± 0.0013 | –
4 | CYP2D6: human P450 isoform (baculosomes), soluble or encapsulated in alginate; assayed with EOMCC (protein, UniProt P10635 1-497, looked up) Cytochrome P450 2D6: MGLEALVPLAVIVAIFLLLVDLMHRRQRWAARYPPGPLPLPGLGNLLHVDFQNTPYCFDQLRRRFGDVFSLQLAWTPVVVLNGLAAVREALVTHGEDTADRPPVPITQILGFGPRSQGVFLARYGPAWREQRRFSVSTLRNLGLGKKSLEQWVTEEAACLCAAFANHSGRPFRPNGLLDKAVSNVIASLTCGRRFEYDDPRFLRLLDLAQEGLKEESGFLREVLNAVPVLLHIPALAGKVLRFQKAFLTQLDELLTEHRMTWDPAQPPRDLTEAFLAEMEKAKGNPESSFNDENLRIVVADLFSAGMVTTSTTLAWGLLLMILHPDVQRRVQQEIDDVIGQVRRPEMGDQAHMPYTTAVIHEVQRFGDIVPLGVTHMTSRDIEVQGFRIPKGTTLITNLSSVLKDEAVWEKPFRFHPEHFLDAQGHFVKPEAFLPFSAGRRACLGEPLARMELFLFFTSLLQHFSFSVPTGQPRPSHHGVFAFLVSPSPYELCAVPR | – | – | – | – | – | – | – | – | – | – | – | – | – | – | 6.37 ± 1.25 | 0.0012 ± 0.00017 | 12.5 ± 4.64 | 0.002 ± 0.0005 | –
